Assay results as given in ChEMBL document CHEMBL5442219.

Assays:
Conditions in all cases: Compound concentration 10 µM
[1] = target: T1, Alpha-2B adrenergic receptor (Homo sapiens) (UniProt P18089)
T1 sequence (whole entry): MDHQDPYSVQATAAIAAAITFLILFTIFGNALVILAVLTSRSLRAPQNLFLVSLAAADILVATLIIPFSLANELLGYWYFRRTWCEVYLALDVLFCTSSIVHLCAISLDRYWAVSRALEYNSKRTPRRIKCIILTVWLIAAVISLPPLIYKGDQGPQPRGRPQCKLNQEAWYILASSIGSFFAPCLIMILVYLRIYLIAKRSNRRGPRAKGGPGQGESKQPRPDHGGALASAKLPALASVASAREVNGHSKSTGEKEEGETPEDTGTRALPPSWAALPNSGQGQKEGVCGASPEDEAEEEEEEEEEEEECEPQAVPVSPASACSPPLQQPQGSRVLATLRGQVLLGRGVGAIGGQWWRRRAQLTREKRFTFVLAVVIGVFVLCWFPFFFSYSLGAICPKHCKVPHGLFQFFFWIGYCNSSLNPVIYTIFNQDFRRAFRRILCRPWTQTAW

[2] = target: Beta-2 adrenergic receptor (Homo sapiens) (UniProt P07550)
Sequence of Beta-2 adrenergic receptor (Homo sapiens) (P07550 whole entry, looked up): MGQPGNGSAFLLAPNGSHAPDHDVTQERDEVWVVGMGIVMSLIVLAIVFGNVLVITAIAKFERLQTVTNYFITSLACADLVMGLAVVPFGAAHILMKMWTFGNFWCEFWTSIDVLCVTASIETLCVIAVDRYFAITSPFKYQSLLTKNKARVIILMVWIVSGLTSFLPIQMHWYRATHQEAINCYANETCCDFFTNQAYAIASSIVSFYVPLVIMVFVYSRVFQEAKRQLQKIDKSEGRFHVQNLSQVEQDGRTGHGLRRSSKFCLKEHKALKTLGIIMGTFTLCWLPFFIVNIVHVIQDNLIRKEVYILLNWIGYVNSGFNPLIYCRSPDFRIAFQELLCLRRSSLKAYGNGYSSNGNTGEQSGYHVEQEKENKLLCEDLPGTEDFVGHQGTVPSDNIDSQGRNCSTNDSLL

[3] = target: T2, Muscarinic acetylcholine receptor M5 (Homo sapiens) (UniProt P08912)
T2 sequence (whole entry): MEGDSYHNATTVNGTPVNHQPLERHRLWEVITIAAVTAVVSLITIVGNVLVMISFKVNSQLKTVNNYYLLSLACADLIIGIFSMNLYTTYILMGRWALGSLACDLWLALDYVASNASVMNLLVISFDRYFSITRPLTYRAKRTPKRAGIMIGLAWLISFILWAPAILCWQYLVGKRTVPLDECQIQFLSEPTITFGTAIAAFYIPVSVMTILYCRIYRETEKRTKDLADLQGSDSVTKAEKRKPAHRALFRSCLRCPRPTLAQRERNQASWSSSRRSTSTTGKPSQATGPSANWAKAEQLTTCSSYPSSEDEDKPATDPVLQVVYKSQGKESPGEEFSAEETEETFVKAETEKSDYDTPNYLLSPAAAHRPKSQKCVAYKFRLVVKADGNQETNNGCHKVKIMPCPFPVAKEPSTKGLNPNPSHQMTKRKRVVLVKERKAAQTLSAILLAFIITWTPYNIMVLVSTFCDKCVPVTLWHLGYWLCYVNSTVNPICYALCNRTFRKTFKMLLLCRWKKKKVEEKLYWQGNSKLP

[4] = target: Histamine H4 receptor (Homo sapiens) (UniProt Q9H3N8)
Sequence of Histamine H4 receptor (Homo sapiens) (Q9H3N8 whole entry): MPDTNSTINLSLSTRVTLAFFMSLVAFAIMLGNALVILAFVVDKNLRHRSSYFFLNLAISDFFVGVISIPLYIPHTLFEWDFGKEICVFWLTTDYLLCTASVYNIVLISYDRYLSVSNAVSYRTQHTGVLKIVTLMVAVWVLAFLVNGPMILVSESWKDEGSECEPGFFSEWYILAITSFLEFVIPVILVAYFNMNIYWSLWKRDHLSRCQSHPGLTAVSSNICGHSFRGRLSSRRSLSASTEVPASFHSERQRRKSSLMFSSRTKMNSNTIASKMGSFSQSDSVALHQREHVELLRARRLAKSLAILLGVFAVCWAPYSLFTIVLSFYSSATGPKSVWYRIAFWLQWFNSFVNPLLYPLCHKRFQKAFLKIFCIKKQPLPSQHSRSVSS

[5] = target: T3, 5-hydroxytryptamine receptor 3A (Homo sapiens) (UniProt P46098)
T3 sequence (whole entry): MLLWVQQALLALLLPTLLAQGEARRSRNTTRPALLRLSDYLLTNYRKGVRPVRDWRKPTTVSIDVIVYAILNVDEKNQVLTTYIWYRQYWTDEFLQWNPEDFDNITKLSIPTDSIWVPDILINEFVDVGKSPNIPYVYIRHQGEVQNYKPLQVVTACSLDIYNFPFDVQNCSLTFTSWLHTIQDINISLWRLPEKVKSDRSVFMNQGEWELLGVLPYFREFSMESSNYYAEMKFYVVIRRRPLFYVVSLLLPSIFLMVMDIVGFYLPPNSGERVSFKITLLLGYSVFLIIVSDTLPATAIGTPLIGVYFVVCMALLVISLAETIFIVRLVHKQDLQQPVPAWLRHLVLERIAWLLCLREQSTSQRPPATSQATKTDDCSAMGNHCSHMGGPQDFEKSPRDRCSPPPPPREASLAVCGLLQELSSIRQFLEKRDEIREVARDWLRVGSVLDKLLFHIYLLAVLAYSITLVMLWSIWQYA

[6] = target: Delta-type opioid receptor (Homo sapiens) (UniProt P41143)
Sequence of Delta-type opioid receptor (Homo sapiens) (P41143 whole entry): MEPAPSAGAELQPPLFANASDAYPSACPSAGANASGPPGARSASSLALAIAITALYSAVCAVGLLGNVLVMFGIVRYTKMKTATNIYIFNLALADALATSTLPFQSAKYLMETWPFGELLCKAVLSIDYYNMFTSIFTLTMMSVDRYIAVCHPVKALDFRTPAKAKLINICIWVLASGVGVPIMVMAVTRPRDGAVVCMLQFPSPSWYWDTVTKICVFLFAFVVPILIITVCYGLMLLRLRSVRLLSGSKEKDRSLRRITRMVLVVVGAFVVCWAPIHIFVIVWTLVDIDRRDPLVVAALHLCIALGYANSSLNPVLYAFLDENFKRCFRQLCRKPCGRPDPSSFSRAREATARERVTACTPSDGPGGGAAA

[7] = target: T4, Alpha-2C adrenergic receptor (Homo sapiens) (UniProt P18825)
T4 sequence (whole entry): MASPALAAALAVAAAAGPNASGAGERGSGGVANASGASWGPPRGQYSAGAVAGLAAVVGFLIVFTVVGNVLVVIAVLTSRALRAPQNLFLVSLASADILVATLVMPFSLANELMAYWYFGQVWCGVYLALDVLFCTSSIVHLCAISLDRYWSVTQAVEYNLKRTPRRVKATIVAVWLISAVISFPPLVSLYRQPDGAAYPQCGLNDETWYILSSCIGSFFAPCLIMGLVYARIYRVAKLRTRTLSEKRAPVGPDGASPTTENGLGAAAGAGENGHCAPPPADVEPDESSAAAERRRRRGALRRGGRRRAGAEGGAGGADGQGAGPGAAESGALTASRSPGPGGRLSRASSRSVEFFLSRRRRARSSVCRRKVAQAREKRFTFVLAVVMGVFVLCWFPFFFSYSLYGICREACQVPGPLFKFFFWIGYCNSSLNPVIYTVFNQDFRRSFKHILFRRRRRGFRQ

[8] = target: Muscarinic acetylcholine receptor M3 (Homo sapiens) (UniProt P20309)
Sequence of Muscarinic acetylcholine receptor M3 (Homo sapiens) (P20309 whole entry, looked up): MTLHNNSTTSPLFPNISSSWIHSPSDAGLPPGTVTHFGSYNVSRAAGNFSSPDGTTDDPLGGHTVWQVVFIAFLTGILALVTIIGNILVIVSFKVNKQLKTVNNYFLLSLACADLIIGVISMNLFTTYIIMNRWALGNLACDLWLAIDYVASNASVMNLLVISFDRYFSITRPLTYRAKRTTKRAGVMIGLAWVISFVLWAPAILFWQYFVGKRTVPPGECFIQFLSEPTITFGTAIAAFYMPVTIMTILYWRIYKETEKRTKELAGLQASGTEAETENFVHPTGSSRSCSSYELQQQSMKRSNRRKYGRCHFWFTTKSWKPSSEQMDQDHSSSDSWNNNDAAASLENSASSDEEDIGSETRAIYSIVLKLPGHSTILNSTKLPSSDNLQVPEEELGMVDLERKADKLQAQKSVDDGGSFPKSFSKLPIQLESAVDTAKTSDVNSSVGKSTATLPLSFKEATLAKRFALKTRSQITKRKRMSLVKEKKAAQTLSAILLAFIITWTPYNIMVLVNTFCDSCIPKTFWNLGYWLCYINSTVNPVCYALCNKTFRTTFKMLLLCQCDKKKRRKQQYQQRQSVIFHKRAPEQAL

[9] = target: Sodium-dependent noradrenaline transporter (Homo sapiens) (UniProt P23975)
Sequence of Sodium-dependent noradrenaline transporter (Homo sapiens) (P23975 whole entry): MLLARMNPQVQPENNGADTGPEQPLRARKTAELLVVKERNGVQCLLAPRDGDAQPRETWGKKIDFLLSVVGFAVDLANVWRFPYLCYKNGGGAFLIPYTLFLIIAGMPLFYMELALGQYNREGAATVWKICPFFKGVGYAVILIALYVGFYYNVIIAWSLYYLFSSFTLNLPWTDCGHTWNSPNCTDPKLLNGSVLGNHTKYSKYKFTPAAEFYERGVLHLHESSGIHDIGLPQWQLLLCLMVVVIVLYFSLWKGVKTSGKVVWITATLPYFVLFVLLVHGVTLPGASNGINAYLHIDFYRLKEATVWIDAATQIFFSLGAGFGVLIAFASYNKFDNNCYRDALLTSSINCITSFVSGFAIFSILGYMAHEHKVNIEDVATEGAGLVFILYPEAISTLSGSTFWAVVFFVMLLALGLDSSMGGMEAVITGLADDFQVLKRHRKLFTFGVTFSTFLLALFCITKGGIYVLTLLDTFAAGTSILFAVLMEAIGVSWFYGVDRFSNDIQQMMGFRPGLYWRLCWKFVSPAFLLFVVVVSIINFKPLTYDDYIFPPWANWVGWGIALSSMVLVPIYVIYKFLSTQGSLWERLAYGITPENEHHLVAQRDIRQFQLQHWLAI

[10] = target: Translocator protein (Homo sapiens) (UniProt P30536)
Sequence of Translocator protein (Homo sapiens) (P30536 whole entry): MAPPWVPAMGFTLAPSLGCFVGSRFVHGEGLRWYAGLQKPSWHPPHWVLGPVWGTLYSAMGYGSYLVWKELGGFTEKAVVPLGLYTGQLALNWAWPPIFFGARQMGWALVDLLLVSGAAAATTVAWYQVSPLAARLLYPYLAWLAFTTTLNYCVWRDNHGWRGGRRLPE

[11] = target: T5, D(4) dopamine receptor (Homo sapiens) (UniProt P21917)
T5 sequence (whole entry): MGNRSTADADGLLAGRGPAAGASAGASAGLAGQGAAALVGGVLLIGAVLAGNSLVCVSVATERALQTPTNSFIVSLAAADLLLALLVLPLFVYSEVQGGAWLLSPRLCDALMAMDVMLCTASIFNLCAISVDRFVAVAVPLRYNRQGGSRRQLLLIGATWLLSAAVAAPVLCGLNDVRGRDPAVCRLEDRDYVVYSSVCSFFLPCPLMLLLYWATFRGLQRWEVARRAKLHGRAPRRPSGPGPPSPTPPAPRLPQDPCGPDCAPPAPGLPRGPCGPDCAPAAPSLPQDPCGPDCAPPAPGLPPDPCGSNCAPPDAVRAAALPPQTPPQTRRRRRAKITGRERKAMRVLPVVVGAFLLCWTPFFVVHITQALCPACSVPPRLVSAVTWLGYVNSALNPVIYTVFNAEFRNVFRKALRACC

Row | Compound | inhibition [1] [%] | inhibition [2] [%] | inhibition [3] [%] | inhibition [4] [%] | inhibition [5] [%] | inhibition [6] [%] | inhibition [7] [%] | inhibition [8] [%] | inhibition [9] [%] | inhibition [10] [%] | inhibition [11] [%]
1 | CC(C)NC(=O)c1ccc(C#Cc2ccncc2)cn1 | -0.82 | -8.85 | 43.2 | -7.18 | -5.94 | -3.71 |  |  |  |  | 
2 | CCCNS(=O)(=O)Nc1ncnc(OCCOc2ncc(Br)cn2)c1-c1ccc(Br)cc1 |  |  | 11.6 | 8.98 |  | 23.6 | -8.41 | 20.8 | 53.5 | 51.2 | 
3 | CNc1nc(NCc2ccc(NS(C)(=O)=O)cc2Cl)cc(-c2ccccn2)n1 | 24.4 |  | 6.84 | 0.58 | -0.08 | -8.14 | 50.4 | -1.96 | 24 | 54.8 | 2.1
4 | CC(C)Oc1ccccc1C(=O)Nc1ccccc1C(=O)Nc1cccc(S(=O)(=O)C(F)(F)F)c1 |  | -8.68 | -4.83 |  | -3.89 | -2.57 |  | 13.1 |  | 66.1 | 43
5 | CCOC(=O)c1cc(C#N)c(N2CCC(C(=O)NS(=O)(=O)Cc3ccccc3)CC2)nc1C | -7.37 | -1.62 | 28.6 | 6.28 | 3.98 | -8.38 | -0.84 |  |  |  | 7.97
6 | CCC[C@H](Oc1cc(C)c(-n2cc(C(F)(F)F)cn2)c(C)c1)c1ccc(C(=O)NCCC(=O)O)cc1 | -4.35 |  | 70.1 |  |  | 27 | 5.06 | -0.42 |  | 28.7 | -1.34
7 | Cc1cc([C@@H](C)Nc2cccc(-c3cc(C)c(C(=O)N[C@@H](C)C(=O)O)c(C)c3)c2)ccc1Cl | 24.6 |  |  |  |  | 35.9 | -1.32 | -4.86 | 14.9 | 62.7 | 31.4
8 | OCc1cc(C(O)CNCCCCCCOCCCCc2ccccc2)ccc1O (stereo unspecified) | 74.1 |  | 60.2 | 6.15 | 4.21 | 5.6 | 45.6 | -8.98 | 98.7 | -0.39 | 57.4
9 | O=C(O)CC1CCC2(CC1)CCN(c1cc(OC(F)(F)F)ccc1Cl)CC2 |  | 0.58 | -6.92 | 9.28 |  | -0.66 | 0.13 | -5.1 | 13.3 | 7.83 | 
10 | Cc1ccc2c(c1)c1c(n2CCc2ccc(C)nc2)CCN(C)C1 | 91.7 | -9.1 | -2.89 |  | 21.6 | 1.39 | 73.6 | 18 | -7.44 | 11.9 | 52.7
11 | O=C1O[C@]2(CC[C@H](C(=O)Nc3ccn(-c4ccccc4F)n3)CC2)c2cnccc21 |  |  | -6.98 |  |  | -5.86 |  | 2.94 |  | 1.2 | 
12 | CN1CCC(=C2c3ccccc3CC(=O)c3sccc32)CC1 |  | 25.3 | 93.2 | 26.2 | 84.5 | 14.2 | 42.7 |  | 45.1 | 6.55 | 25.6
13 | CCCn1c(=O)c2nc(C34CC5CC(CC3C5)C4)[nH]c2n(CCC)c1=O | 6.22 | 4.88 |  | 6.77 | -9.26 | 11.3 | 9.01 |  |  | 25.5 | 1.06
14 | COc1cccc(-c2c(C)n(Cc3c(F)cccc3C(F)(F)F)c(=O)n(C[C@H](NCCCC(=O)O)c3ccccc3)c2=O)c1F | -2.07 |  |  |  |  | 7.27 | -3.99 | -7.5 |  | 15.8 | 25.8
15 | Cc1nn(C)c(C)c1-c1cccc2c1CC[C@H](N(C)C)C2 | 92.2 | 20.2 | 69.2 |  | 85.9 | -4.68 | 45.4 | 44.1 | -2.38 |  | 24.5
16 | Cc1c(F)cccc1NC(=O)Nc1ccc(Cl)c(S(=O)(=O)[C@H]2CCCNC2)c1O | 3.18 | 5.61 |  |  |  | -5.71 | -6.11 | 22.8 |  | 8.9 | 6.5
17 | CC(C)(C(=O)O)c1ccc(C(O)CCCN2CCC(C(O)(c3ccccc3)c3ccccc3)CC2)cc1 (stereo unspecified) |  | -5.98 |  | -8.03 |  |  | -7.6 |  |  | -4.11 | 19.6
18 | O=C(O)COc1cccc(CN(Cc2ccc(-n3cccn3)cc2)S(=O)(=O)c2cccnc2)c1 | -5.85 | -8.36 | -5.22 | -9.76 |  | 22.4 | -2.57 | 7.64 |  | 11.1 | 4.77
19 | CN(C)S(=O)(=O)c1ccc(NC(=S)N2CCC(C(O)(c3ccccc3)c3ccccc3)CC2)cc1 | 14.4 | 71.8 |  | -3.58 | -8.86 | 10.2 | 21.8 | -7.46 | 15.8 | 75.4 | 8.69
20 | NCCc1c[nH]c2ccc(C(N)=O)cc12 | 24.8 | 4.33 | 8.53 | -3.92 |  | -3.42 | 15.4 | 3.95 | 63.2 |  | 8.02
